{"source": "patent US12496329B2", "about": "“Methods of using and compositions including an incretin analog” (Eli Lilly and Company, priority 2021, dated 2025)", "key": {"[1]": {"experiment": "Phase 2 study for T2DM", "assay_type": "in vivo, human", "details": "16 week data; start 1 or 2 mg, steps of 1, 2, 3 or 4 mg to maximum 12 mg QW SC", "from_the_text": "Studies are designed to further evaluate the effectiveness and safety of the GGG tri-receptor agonist (SEQ ID NO: 1) in a larger population of individuals with diabetes. The study is a randomized, investigator- and participant-blind, placebo-controlled study conducted in individuals with diabetes (i.e., females or males aged 18-75 years, inclusive, with T2DM for at least 3 months and HbA1c at lead-in and screening of ≥7.0% and ≤10.5% and treated with diet and exercise alone or a stable dose of metformin for at least 3 months prior to screening, with stable body weight for 3 months prior to randomization and with a BMI of 25-50 kg/m^2 at screening).\nDose escalation of the GGG tri-receptor agonist is assessed over 36 weeks in cohorts administered the GGG tri-receptor agonist, dulaglutide or placebo. A first cohort of 50 individuals is administered 2.0 mg of the GGG tri-receptor agonist for Weeks 1-4, 4.0 mg for the Weeks 5-8, 8.0 mg for Weeks 9-12, and then 12.0 mg for Weeks 13-36. […] A third cohort of 20 individuals is administered 2.0 mg of the GGG tri-receptor agonist for Weeks 1-4, 4.0 mg for Weeks 5-8, and then 8.0 mg for Weeks 9-36. […]\nBlood samples are collected pre-dose and at Week 24 for HbA1c. […] In addition, change in body weight (kg) is assessed from baseline to Week 24 and to Week 36. […]"}, "[2]": {"experiment": "SAD study: plasma pharmacokinetics after a single SC dose", "assay_type": "in vivo", "details": "both sexes, human", "from_the_text": "Studies are designed to evaluate the safety, tolerability, pharmacodynamics (PD) and pharmacokinetics (PK) of the GGG tri-receptor agonist (SEQ ID NO:1) in healthy individuals. The SAD study is a randomized, investigator- and participant-blind, placebo-controlled, single-dose, single-site, dose-escalation study conducted in healthy individuals (e.g., overtly healthy females or males aged 21-65 years, inclusive, with a BMI 19-40 kg/m^2 at screening).\nSix dose levels of the GGG tri-receptor agonist-0.1, 0.3, 1.0, 3.0, 4.5 and 6.0 mg—are explored in the SAD study, as well as placebo (i.e., 0.0 mg). A dose escalation of the GGG tri-receptor agonist is assessed in cohorts of healthy individuals (e.g., 6 individuals receiving the GGG tri-receptor agonist and 2 individuals receiving placebo per cohort). Staggered dosing is performed for each cohort, in which a new higher dose of the GGG tri-receptor agonist is administered. All injections are administered into the SC tissue of an abdominal wall, in a right or left lower quadrant.\nBlood samples are collected pre-dose and at 4 hours (hr), 10 hr, 14 hr, 24 hr (Day 1), 48 hr (Day 2), 72 hr (Day 3), 96 hr (Day 4), 120 hr ([…]), 168 hr (Day 7), 336 hr (Day 14), 672 hr (Day 28) and 1008 hr (Day 42) post-dose to determine plasma concentration of the GGG tri-receptor agonist. Plasma concentrations are used to compute PK parameters using standard non-compartmental methods in a validated software program (Phoenix WinNonlin Version 8.1).\n(§1) Bioanalytical methods: plasma samples are analyzed at Q2 Solutions (Ithaca, NY). The samples are analyzed for the GGG tri-receptor agonist using a validated liquid chromatography high resolution mass spectrometry method. The lower limit of quantification is 1.00 ng/mL and the upper limit of quantification is 500.00 ng/ml. Samples above a limit of quantification are diluted and reanalyzed to yield results within the calibrated range. The intra-assay accuracy (% relative error) during validation ranges from −6.3% to 15.7%. The intra-assay precision (% relative standard deviation) during validation is ≤14.7%. The GGG tri-receptor agonist is stable for up to 96 days when stored at about-20° C. and about −70° C.\nActual sampling times are used in the calculation of all PK parameters and concentration versus time profiles.\nConcentration values below the quantifiable lower limit of the assay are excluded from the calculation of PK parameters, except for those prior to the first measurable concentration, which are set to a value of 0.\nA concentration average is plotted for a given sample if two thirds of the individual data at the time point have quantifiable measurements. Concentrations at sampling times exceeding ±10% of the scheduled time ware excluded from the average concentration profiles."}, "[3]": {"experiment": "Stability of analyte in stored plasma samples (bioanalytical validation)", "assay_type": "in vitro ADME, human", "details": "about -20° C. and about −70° C.", "procedure": "as §1"}}, "note": "Where two headings read alike, the source gives them in different places.", "data": [{"molecule": "CC[C@H](C)[C@H](NC(=O)[C@H](Cc1ccccc1)NC(=O)[C@H](C)NC(=O)C(C)(C)NC(=O)[C@H](CCC(N)=O)NC(=O)[C@H](C)NC(=O)[C@H](CCCCNC(=O)COCCOCCNC(=O)CC[C@H](NC(=O)CCCCCCCCCCCCCCCCCCC(=O)O)C(=O)O)NC(=O)[C@H](CCCCN)NC(=O)[C@H](CC(=O)O)NC(=O)[C@H](CC(C)C)NC(=O)[C@](C)(CC(C)C)NC(=O)[C@@H](NC(=O)[C@H](CO)NC(=O)[C@H](Cc1ccc(O)cc1)NC(=O)[C@H](CC(=O)O)NC(=O)[C@H](CO)NC(=O)[C@@H](NC(=O)[C@H](Cc1ccccc1)NC(=O)[C@@H](NC(=O)CNC(=O)[C@H](CCC(N)=O)NC(=O)C(C)(C)NC(=O)[C@@H](N)Cc1ccc(O)cc1)[C@@H](C)O)[C@@H](C)O)[C@@H](C)CC)C(=O)N[C@@H](CCC(=O)O)C(=O)N[C@@H](Cc1ccc(O)cc1)C(=O)N[C@@H](CC(C)C)C(=O)N[C@@H](CC(C)C)C(=O)N[C@@H](CCC(=O)O)C(=O)NCC(=O)NCC(=O)N1CCC[C@H]1C(=O)N[C@@H](CO)C(=O)N[C@@H](CO)C(=O)NCC(=O)N[C@@H](C)C(=O)N1CCC[C@H]1C(=O)N1CCC[C@H]1C(=O)N1CCC[C@H]1C(=O)N[C@@H](CO)C(N)=O", "note": "[GGG tri-receptor agonist, Y-Aib-QGTFTSDYSI-αMeL-LDKK((2-[2-(2-amino-ethoxy)-ethoxy]-acetyl)-(γGlu)-CO-(CH2)18-CO2H)AQ-Aib-AFIEYLLEGGPSSGAPPPS-NH2]", "values": [{"measurement": "tolerability profile of dosing regimens", "setting": "[1]", "result": "acceptable tolerability profiles"}, {"measurement": "AUC(0-inf)", "setting": "[2]; 0.1 mg single SC dose", "result": 3750, "unit": "ng·h/mL"}, {"measurement": "CL/F", "setting": "[2]; 0.1 mg single SC dose", "result": 0.445, "unit": "mL/min"}, {"measurement": "Cmax", "setting": "[2]; 0.1 mg single SC dose", "result": 11, "unit": "ng/mL"}, {"measurement": "Tmax", "setting": "[2]; 0.1 mg single SC dose", "result": 72, "unit": "h"}, {"measurement": "AUC(0-inf)", "setting": "[2]; 0.3 mg single SC dose", "result": 10300, "unit": "ng·h/mL"}, {"measurement": "CL/F", "setting": "[2]; 0.3 mg single SC dose", "result": 0.485, "unit": "mL/min"}, {"measurement": "Cmax", "setting": "[2]; 0.3 mg single SC dose", "result": 44.8, "unit": "ng/mL"}, {"measurement": "Tmax", "setting": "[2]; 0.3 mg single SC dose", "result": 72.2, "unit": "h"}, {"measurement": "AUC(0-inf)", "setting": "[2]; 1.0 mg single SC dose", "result": 28300, "unit": "ng·h/mL"}, {"measurement": "CL/F", "setting": "[2]; 1.0 mg single SC dose", "result": 0.59, "unit": "mL/min"}, {"measurement": "Cmax", "setting": "[2]; 1.0 mg single SC dose", "result": 110, "unit": "ng/mL"}, {"measurement": "Tmax", "setting": "[2]; 1.0 mg single SC dose", "result": 48, "unit": "h"}, {"measurement": "AUC(0-inf)", "setting": "[2]; 3.0 mg single SC dose", "result": 69100, "unit": "ng·h/mL"}, {"measurement": "CL/F", "setting": "[2]; 3.0 mg single SC dose", "result": 0.723, "unit": "mL/min"}, {"measurement": "Cmax", "setting": "[2]; 3.0 mg single SC dose", "result": 251, "unit": "ng/mL"}, {"measurement": "Tmax", "setting": "[2]; 3.0 mg single SC dose", "result": 14, "unit": "h"}, {"measurement": "AUC(0-inf)", "setting": "[2]; 4.5 mg single SC dose", "result": 130000, "unit": "ng·h/mL"}, {"measurement": "CL/F", "setting": "[2]; 4.5 mg single SC dose", "result": 0.577, "unit": "mL/min"}, {"measurement": "Cmax", "setting": "[2]; 4.5 mg single SC dose", "result": 589, "unit": "ng/mL"}, {"measurement": "Tmax", "setting": "[2]; 4.5 mg single SC dose", "result": 12, "unit": "h"}, {"measurement": "AUC(0-inf)", "setting": "[2]; 6.0 mg single SC dose", "result": 150000, "unit": "ng·h/mL"}, {"measurement": "CL/F", "setting": "[2]; 6.0 mg single SC dose", "result": 0.668, "unit": "mL/min"}, {"measurement": "Cmax", "setting": "[2]; 6.0 mg single SC dose", "result": 635, "unit": "ng/mL"}, {"measurement": "Tmax", "setting": "[2]; 6.0 mg single SC dose", "result": 24, "unit": "h"}, {"measurement": "half-life", "setting": "[2]; sc, 0.1 mg, 0.1 mg single SC dose, read-out: t½ (converted)", "result": 165, "unit": "h"}, {"measurement": "half-life", "setting": "[2]; sc, 0.3 mg, 0.3 mg single SC dose, read-out: t½ (converted)", "result": 139, "unit": "h"}, {"measurement": "half-life", "setting": "[2]; sc, 1 mg, 1.0 mg single SC dose, read-out: t½ (converted)", "result": 134, "unit": "h"}, {"measurement": "half-life", "setting": "[2]; sc, 3 mg, 3.0 mg single SC dose, read-out: t½ (converted)", "result": 134, "unit": "h"}, {"measurement": "half-life", "setting": "[2]; sc, 4.5 mg, 4.5 mg single SC dose, read-out: t½ (converted)", "result": 163, "unit": "h"}, {"measurement": "half-life", "setting": "[2]; sc, 6 mg, 6.0 mg single SC dose, read-out: t½ (converted)", "result": 149, "unit": "h"}, {"measurement": "half-life", "setting": "[2]; subcutaneous, single dose, read-out: mean terminal t½", "result": "120 to 168", "unit": "h"}, {"measurement": "stability when stored", "setting": "[3]", "result": "up to 96 days"}]}]}
